In PMC6001238, “Iterative Chemical Engineering of Vancomycin Leads to Novel Vancomycin Analogs With a High in Vitro Therapeutic Index” (Frontiers in Microbiology, 2018):
Converted amounts (≈) assume the structure as drawn.

What was measured:
[1] = tested on: L1210, CEM and HeLa cell lines; test: Cytostatic activity, average or summary over L1210, CEM and HeLa; assay type: cell-based; settings: average of L1210, CEM and HeLa; read-out: Toxicity (IC50) Average
Procedure, shortened: (§1)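 Test compounds, serially diluted, received an equal volume of cell suspension at 300,000–500,000 cells/mL. After 37°C incubation (2 days for L1210, 3 for CEM, 4 for HeLa), cells were enumerated by Coulter counting and 50%-inhibitory concentrations calculated per cell type.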

[2] = tested on: human cervix carcinoma (HeLa) cells; test: Cytostatic activity, HeLa cell proliferation; assay type: cell-based; settings: mean ± SD of three experiments; highest concentration tested 250 µM; 4 days; read-out: Toxicity (IC50) HeLa
Procedure, shortened: as §1

E. faecalis VRE 53 = test: MIC, broth microdilution, vancomycin-resistant E. faecalis VRE 53 (VanA); assay type: cell-based, Enterococcus faecalis; settings: for MIC: Enterococcus faecalis VRE 53 (vancomycin-resistant), read-out: MIC; for MIC-fold improvement vs. vancomycin: VRE 53, ratio of MIC of vancomycin and MIC of analogue
Procedure, shortened: (§2)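 CLSI broth microdilution; water and uninoculated-broth controls; one arm supplemented with vancomycin, final 10 μM, given with analogue or control antibiotic.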

[3] = tested on: human T-lymphocyte (CEM) cells; test: Cytostatic activity, CEM cell proliferation; assay type: cell-based; settings: mean ± SD of three experiments; highest concentration tested 250 µM; 3 days; read-out: Toxicity (IC50) CEM
Procedure, shortened: as §1

E. faecalis VRE 6 = test: MIC, broth microdilution, vancomycin-resistant E. faecalis VRE 6 (VanA); assay type: cell-based, Enterococcus faecalis; settings: for MIC: Enterococcus faecalis VRE 6 (vancomycin-resistant), read-out: MIC; for MIC-fold improvement vs. vancomycin: VRE 6, ratio of MIC of vancomycin and MIC of analogue
Procedure, shortened: as §2

E. faecalis VRE 29 = test: MIC, broth microdilution, vancomycin-resistant E. faecalis VRE 29 (VanA); assay type: cell-based, Enterococcus faecalis; settings: for MIC: Enterococcus faecalis VRE 29 (vancomycin-resistant), read-out: MIC; for MIC-fold improvement vs. vancomycin: VRE 29, ratio of MIC of vancomycin and MIC of analogue
Procedure, shortened: as §2

[4] = tested on: Murine leukemia (L1210) cells; test: Cytostatic activity, L1210 cell proliferation; assay type: cell-based; settings: mean ± SD of three experiments; highest concentration tested 250 µM; 2 days; read-out: Toxicity (IC50) L1210
Procedure, shortened: as §1

MRSA KS6 = test: MIC, broth microdilution, MRSA KS6; assay type: cell-based, Staphylococcus aureus; settings: for MIC-fold improvement vs. vancomycin: MRSA KS6, ratio of MIC of vancomycin and MIC of analogue; for MIC: Staphylococcus aureus MRSA KS6, read-out: MIC
Procedure, shortened: as §2

S. aureus VRSA = test: MIC, broth microdilution, vancomycin-resistant S. aureus (VRSA); assay type: cell-based, Staphylococcus aureus; settings: for MIC: Staphylococcus aureus VRSA, read-out: MIC; for MIC-fold improvement vs. vancomycin: VRSA, ratio of MIC of vancomycin and MIC of analogue
Procedure, shortened: as §2

S. aureus VISA/HIP5827 = test: MIC, broth microdilution, vancomycin-intermediate S. aureus VISA HIP5827; assay type: cell-based, Staphylococcus aureus; settings: for MIC: Staphylococcus aureus VISA/HIP5827, read-out: MIC; for MIC-fold improvement vs. vancomycin: VISA/HIP5827, ratio of MIC of vancomycin and MIC of analogue
Procedure, shortened: as §2

[5] = tested on: S. aureus VSSA (ATCC 6538); test: MIC, broth microdilution, vancomycin-sensitive S. aureus (VSSA/MSSA, ATCC 6538); assay type: cell-based, Staphylococcus aureus; settings: for MIC: Staphylococcus aureus VSSA, read-out: MIC; for MIC-fold improvement vs. vancomycin: VSSA, ratio of MIC of vancomycin and MIC of analogue
Procedure, shortened: as §2

E. faecalis VRE 37 = test: MIC, broth microdilution, vancomycin-resistant E. faecalis VRE 37 (VanA); assay type: cell-based, Enterococcus faecalis; settings: for MIC: Enterococcus faecalis VRE 37 (vancomycin-resistant), read-out: MIC; for MIC-fold improvement vs. vancomycin: VRE 37, ratio of MIC of vancomycin and MIC of analogue
Procedure, shortened: as §2

MRSA KS2 = test: MIC, broth microdilution, MRSA KS2; assay type: cell-based, Staphylococcus aureus; settings: for MIC-fold improvement vs. vancomycin: MRSA KS2, ratio of MIC of vancomycin and MIC of analogue; for MIC: Staphylococcus aureus MRSA KS2, read-out: MIC
Procedure, shortened: as §2

E. faecalis VSE 1 = test: MIC, broth microdilution, vancomycin-sensitive E. faecalis (VSE 1); assay type: cell-based, Enterococcus faecalis; settings: for MIC: Enterococcus faecalis VSE 1 (vancomycin-sensitive), read-out: MIC; for MIC-fold improvement vs. vancomycin: VSE 1, ratio of MIC of vancomycin and MIC of analogue
Procedure, shortened: as §2

MRSA KS89 = test: MIC, broth microdilution, MRSA KS89; assay type: cell-based, Staphylococcus aureus; settings: for MIC-fold improvement vs. vancomycin: MRSA KS8, ratio of MIC of vancomycin and MIC of analogue; for MIC: Staphylococcus aureus MRSA KS8, read-out: MIC
Procedure, shortened: as §2

MRSA KS1 = test: MIC, broth microdilution, MRSA KS1; assay type: cell-based, Staphylococcus aureus; settings: for MIC-fold improvement vs. vancomycin: MRSA KS1, ratio of MIC of vancomycin and MIC of analogue; for MIC: Staphylococcus aureus MRSA KS1, read-out: MIC
Procedure, shortened: as §2

Row | SMILES | IC50 [1] | IC50 [2] | MIC (E. faecalis VRE 53) | MIC-fold improvement vs. vancomycin (E. faecalis VRE 53) | IC50 [3] | MIC (E. faecalis VRE 6) | MIC-fold improvement vs. vancomycin (E. faecalis VRE 6) | MIC (E. faecalis VRE 29) | MIC-fold improvement vs. vancomycin (E. faecalis VRE 29) | IC50 [4] | MIC-fold improvement vs. vancomycin (MRSA KS6) | MIC (MRSA KS6) | MIC (S. aureus VRSA) | MIC-fold improvement vs. vancomycin (S. aureus VRSA) | MIC (S. aureus VISA/HIP5827) | MIC-fold improvement vs. vancomycin (S. aureus VISA/HIP5827) | MIC [5] | MIC-fold improvement vs. vancomycin [5] | MIC (E. faecalis VRE 37) | MIC-fold improvement vs. vancomycin (MRSA KS2) | also measured
1 | CNC(CC(C)C)C(=O)NC1C(=O)NC(CC(N)=O)C(=O)NC2C(=O)NC3C(=O)NC(C(=O)NC(C(=O)NCC(=O)Nc4ccc(-c5ccc(OC)cc5)cc4)c4cc(O)cc(O)c4-c4cc3ccc4O)C(O)c3ccc(c(Cl)c3)Oc3cc2cc(c3OC2OC(CO)C(O)C(O)C2OC2CC(C)(N)C(O)C(C)O2)Oc2ccc(cc2Cl)C1O (centres unmarked) [Vanc-57] | 17 µM | 41 ± 12 µM | 12.5 µM (≈ 21.1 µg/mL) | 32 | 3.7 ± 0.2 µM | 1.56 µM (≈ 2.63 µg/mL) | 128 | 3.13 µM (≈ 5.28 µg/mL) | 128 | 6.3 ± 0.2 µM | 0.5 | 1.56 µM (≈ 2.63 µg/mL) | 1.56 µM (≈ 2.63 µg/mL) | 64 | 0.39 µM (≈ 0.658 µg/mL) | 16 | 0.20 µM (≈ 0.338 µg/mL) | 4 | 1.56 µM (≈ 2.63 µg/mL) | 4 | MIC-fold improvement vs. vancomycin (E. faecalis VRE 37): 256; MIC (MRSA KS2): 0.20 µM (≈ 0.338 µg/mL); MIC (E. faecalis VSE 1): ≤0.05 µM; MIC-fold improvement vs. vancomycin (E. faecalis VSE 1): ≥32; MIC-fold improvement vs. vancomycin (MRSA KS89): 2; MIC (MRSA KS89): 0.39 µM (≈ 0.658 µg/mL); MIC-fold improvement vs. vancomycin (MRSA KS1): 8; MIC (MRSA KS1): 0.10 µM (≈ 0.169 µg/mL)
2 | CNC(CC(C)C)C(=O)NC1C(=O)NC(CC(N)=O)C(=O)NC2C(=O)NC3C(=O)NC(C(=O)NC(C(=O)NCC(=O)Nc4ccc(C=Cc5ccc(N)cc5)cc4)c4cc(O)cc(O)c4-c4cc3ccc4O)C(O)c3ccc(c(Cl)c3)Oc3cc2cc(c3OC2OC(CO)C(O)C(O)C2OC2CC(C)(N)C(O)C(C)O2)Oc2ccc(cc2Cl)C1O (centres unmarked) [Vanc-58] | 191 µM | 125 ± 57 µM | 25 µM (≈ 42.5 µg/mL) | 16 | 197 ± 75 µM | 6.25 µM (≈ 10.6 µg/mL) | 32 | 12.5 µM (≈ 21.2 µg/mL) | 32 | > 250 µM | 1 | 0.78 µM (≈ 1.32 µg/mL) | 0.78 µM (≈ 1.32 µg/mL) | 128 | 1.56 µM (≈ 2.65 µg/mL) | 4 | 0.78 µM (≈ 1.32 µg/mL) | 1 | 12.5 µM (≈ 21.2 µg/mL) | 1 | MIC (MRSA KS2): 0.78 µM (≈ 1.32 µg/mL); MIC (E. faecalis VSE 1): 0.78 µM (≈ 1.32 µg/mL); MIC-fold improvement vs. vancomycin (E. faecalis VSE 1): 2; MIC-fold improvement vs. vancomycin (MRSA KS89): 1; MIC (MRSA KS89): 0.78 µM (≈ 1.32 µg/mL); MIC-fold improvement vs. vancomycin (MRSA KS1): 0.5; MIC (MRSA KS1): 1.56 µM (≈ 2.65 µg/mL)
3 | CN[C@H](CC(C)C)C(=O)N[C@H]1C(=O)N[C@@H](CC(N)=O)C(=O)N[C@H]2C(=O)N[C@H]3C(=O)N[C@H](C(=O)N[C@H](C(=O)NCC(=O)Nc4ccc(NS(=O)(=O)c5ccccc5)cc4)c4cc(O)cc(O)c4-c4cc3ccc4O)[C@H](O)c3ccc(c(Cl)c3)Oc3cc2cc(c3O[C@@H]2O[C@H](CO)[C@@H](O)[C@H](O)[C@H]2O[C@H]2C[C@](C)(N)[C@H](O)[C@H](C)O2)Oc2ccc(cc2Cl)[C@H]1O [Vanc-60] | 181 µM | 75 ± 29 µM | 12.5 µM (≈ 21.7 µg/mL) | 32 | 219 ± 44 µM | 12.5 µM (≈ 21.7 µg/mL) | 16 | 12.5 µM (≈ 21.7 µg/mL) | 32 | > 250 µM | 1 | 0.78 µM (≈ 1.35 µg/mL) | 0.39 µM (≈ 0.677 µg/mL) | 256 | 0.78 µM (≈ 1.35 µg/mL) | 8 | 0.39 µM (≈ 0.677 µg/mL) | 2 | 25 µM (≈ 43.4 µg/mL) | 2 | MIC-fold improvement vs. vancomycin (E. faecalis VRE 37): 16; MIC (MRSA KS2): 0.39 µM (≈ 0.677 µg/mL); MIC (E. faecalis VSE 1): 0.39 µM (≈ 0.677 µg/mL); MIC-fold improvement vs. vancomycin (E. faecalis VSE 1): 4; MIC-fold improvement vs. vancomycin (MRSA KS89): 2; MIC (MRSA KS89): 0.39 µM (≈ 0.677 µg/mL); MIC-fold improvement vs. vancomycin (MRSA KS1): 2; MIC (MRSA KS1): 0.39 µM (≈ 0.677 µg/mL)
4 | CN[C@H](CC(C)C)C(=O)N[C@H]1C(=O)N[C@@H](CC(N)=O)C(=O)N[C@H]2C(=O)N[C@H]3C(=O)N[C@H](C(=O)N[C@H](C(=O)NCC(=O)Nc4ccc(NS(=O)(=O)c5ccc(Cl)cc5Cl)cc4)c4cc(O)cc(O)c4-c4cc3ccc4O)[C@H](O)c3ccc(c(Cl)c3)Oc3cc2cc(c3O[C@@H]2O[C@H](CO)[C@@H](O)[C@H](O)[C@H]2O[C@H]2C[C@](C)(N)[C@H](O)[C@H](C)O2)Oc2ccc(cc2Cl)[C@H]1O [Vanc-61] | 196 µM | 87 ± 37 µM | 6.25 µM (≈ 11.3 µg/mL) | 64 | ≥ 250 µM | 3.13 µM (≈ 5.65 µg/mL) | 64 | 6.25 µM (≈ 11.3 µg/mL) | 64 | ≥ 250 µM | 2 | 0.39 µM (≈ 0.704 µg/mL) | 0.39 µM (≈ 0.704 µg/mL) | 256 | 0.78 µM (≈ 1.41 µg/mL) | 8 | 0.20 µM (≈ 0.361 µg/mL) | 4 | 12.5 µM (≈ 22.6 µg/mL) | 4 | MIC (MRSA KS2): 0.20 µM (≈ 0.361 µg/mL); MIC (E. faecalis VSE 1): 0.39 µM (≈ 0.704 µg/mL); MIC-fold improvement vs. vancomycin (E. faecalis VSE 1): 4; MIC-fold improvement vs. vancomycin (MRSA KS89): 2; MIC (MRSA KS89): 0.39 µM (≈ 0.704 µg/mL); MIC-fold improvement vs. vancomycin (MRSA KS1): 2; MIC (MRSA KS1): 0.39 µM (≈ 0.704 µg/mL)
